Assay results published in ChEMBL document CHEMBL4808217, “Design, Synthesis, and Characterization of 4-Aminoquinazolines as Potent Inhibitors of the G Protein-Coupled Receptor Kinase 6 (GRK6) for the Treatment of Multiple Myeloma” (J Med Chem, 2021).
pIC50: −log10 of the molar value.

Assays:
[1] = target: T1, G protein-coupled receptor kinase 6 (Homo sapiens, UniProt P43250); experiment: Inhibition of recombinant full-length human GRK6 using casein as substrate measured after 80 mins in presence of [gamma33P]ATP by radiometric scintillation counting method
Target sequence in this assay (P43250 whole entry): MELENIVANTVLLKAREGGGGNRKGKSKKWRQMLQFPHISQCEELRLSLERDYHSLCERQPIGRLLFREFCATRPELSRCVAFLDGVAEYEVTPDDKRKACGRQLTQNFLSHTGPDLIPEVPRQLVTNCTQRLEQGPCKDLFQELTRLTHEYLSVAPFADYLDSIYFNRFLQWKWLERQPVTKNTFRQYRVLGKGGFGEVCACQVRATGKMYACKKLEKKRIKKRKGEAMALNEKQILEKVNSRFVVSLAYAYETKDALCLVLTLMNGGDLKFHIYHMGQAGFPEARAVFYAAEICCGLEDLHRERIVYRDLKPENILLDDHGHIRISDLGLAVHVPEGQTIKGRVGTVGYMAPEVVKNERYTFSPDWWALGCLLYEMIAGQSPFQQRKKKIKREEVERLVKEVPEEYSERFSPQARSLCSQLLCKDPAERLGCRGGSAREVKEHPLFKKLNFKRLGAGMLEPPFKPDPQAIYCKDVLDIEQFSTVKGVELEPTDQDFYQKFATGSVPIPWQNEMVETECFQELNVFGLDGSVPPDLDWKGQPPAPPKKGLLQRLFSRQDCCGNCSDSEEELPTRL

Aurora kinase A = target: T2, Aurora kinase A (Homo sapiens, UniProt O14965); experiment: Inhibition of recombinant full length human Aurora A using LRRASLG as substrate incubated for 40 mins in presence of [gamma-33ATP] by radiometric scintillation counting method
T2 sequence (O14965 whole entry): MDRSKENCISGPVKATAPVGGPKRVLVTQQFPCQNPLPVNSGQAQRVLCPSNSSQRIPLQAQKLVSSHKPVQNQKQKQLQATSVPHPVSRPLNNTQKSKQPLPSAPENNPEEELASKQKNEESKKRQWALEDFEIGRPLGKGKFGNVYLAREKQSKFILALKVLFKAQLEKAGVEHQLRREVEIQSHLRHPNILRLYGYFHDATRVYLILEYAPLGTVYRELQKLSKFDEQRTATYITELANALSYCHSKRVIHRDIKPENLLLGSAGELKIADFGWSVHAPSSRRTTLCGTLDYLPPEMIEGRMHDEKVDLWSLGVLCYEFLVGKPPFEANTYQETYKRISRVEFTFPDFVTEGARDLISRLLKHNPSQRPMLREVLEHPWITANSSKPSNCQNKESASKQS

[2] = target: Insulin-like growth factor 1 receptor (Homo sapiens, UniProt P08069); experiment: Inhibition of recombinant human IGF-1R (959 to end residues) using KKKSPGEYVNIEF as substrate incubated for 40 mins in presence of [gamma-33ATP] by radiometric scintillation counting method
Chain of Insulin-like growth factor 1 receptor (P08069 31-736 limits assumed): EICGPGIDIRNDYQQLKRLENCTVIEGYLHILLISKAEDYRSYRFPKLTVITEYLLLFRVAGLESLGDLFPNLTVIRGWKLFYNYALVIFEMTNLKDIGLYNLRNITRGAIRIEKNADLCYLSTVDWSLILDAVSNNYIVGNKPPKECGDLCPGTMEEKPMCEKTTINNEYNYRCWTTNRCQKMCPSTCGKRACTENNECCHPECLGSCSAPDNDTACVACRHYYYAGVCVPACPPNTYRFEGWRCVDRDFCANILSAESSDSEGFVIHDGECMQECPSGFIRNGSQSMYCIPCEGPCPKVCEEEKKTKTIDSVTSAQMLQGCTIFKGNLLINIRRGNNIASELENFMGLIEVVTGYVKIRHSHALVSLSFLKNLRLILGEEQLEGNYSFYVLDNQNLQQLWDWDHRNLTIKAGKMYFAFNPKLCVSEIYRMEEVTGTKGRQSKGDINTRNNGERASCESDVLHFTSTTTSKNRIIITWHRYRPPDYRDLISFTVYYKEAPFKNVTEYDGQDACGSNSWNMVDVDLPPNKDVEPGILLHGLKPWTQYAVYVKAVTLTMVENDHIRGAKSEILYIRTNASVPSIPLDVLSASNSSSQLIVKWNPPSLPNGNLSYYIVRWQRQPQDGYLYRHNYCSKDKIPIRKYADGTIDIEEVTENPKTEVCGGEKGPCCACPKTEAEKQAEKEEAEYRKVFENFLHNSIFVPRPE
Chain of Insulin-like growth factor 1 receptor (P08069 741-1367 limits assumed): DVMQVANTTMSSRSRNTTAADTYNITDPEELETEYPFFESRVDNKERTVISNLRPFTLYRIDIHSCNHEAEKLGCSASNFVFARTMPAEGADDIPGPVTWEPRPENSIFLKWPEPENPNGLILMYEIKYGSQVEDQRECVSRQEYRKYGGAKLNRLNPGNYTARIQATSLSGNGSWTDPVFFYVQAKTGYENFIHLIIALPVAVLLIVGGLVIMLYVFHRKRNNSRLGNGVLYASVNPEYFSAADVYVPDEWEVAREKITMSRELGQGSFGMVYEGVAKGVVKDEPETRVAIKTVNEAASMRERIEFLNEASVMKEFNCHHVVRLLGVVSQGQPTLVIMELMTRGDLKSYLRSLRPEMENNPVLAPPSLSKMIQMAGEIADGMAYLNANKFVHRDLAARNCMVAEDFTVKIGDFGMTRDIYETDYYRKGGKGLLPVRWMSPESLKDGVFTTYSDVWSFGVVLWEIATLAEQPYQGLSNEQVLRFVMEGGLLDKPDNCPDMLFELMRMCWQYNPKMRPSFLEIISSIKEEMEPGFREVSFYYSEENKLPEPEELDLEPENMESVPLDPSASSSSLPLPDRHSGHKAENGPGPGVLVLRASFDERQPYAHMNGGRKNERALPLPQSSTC

Rhodopsin kinase GRK1 = target: T3, Rhodopsin kinase GRK1 (Homo sapiens, UniProt Q15835); experiment: Inhibition of human GRK1 using casein as substrate in presence of [gamma33P]ATP by radiometric hotspot kinase assay
T3 sequence (Q15835 whole entry): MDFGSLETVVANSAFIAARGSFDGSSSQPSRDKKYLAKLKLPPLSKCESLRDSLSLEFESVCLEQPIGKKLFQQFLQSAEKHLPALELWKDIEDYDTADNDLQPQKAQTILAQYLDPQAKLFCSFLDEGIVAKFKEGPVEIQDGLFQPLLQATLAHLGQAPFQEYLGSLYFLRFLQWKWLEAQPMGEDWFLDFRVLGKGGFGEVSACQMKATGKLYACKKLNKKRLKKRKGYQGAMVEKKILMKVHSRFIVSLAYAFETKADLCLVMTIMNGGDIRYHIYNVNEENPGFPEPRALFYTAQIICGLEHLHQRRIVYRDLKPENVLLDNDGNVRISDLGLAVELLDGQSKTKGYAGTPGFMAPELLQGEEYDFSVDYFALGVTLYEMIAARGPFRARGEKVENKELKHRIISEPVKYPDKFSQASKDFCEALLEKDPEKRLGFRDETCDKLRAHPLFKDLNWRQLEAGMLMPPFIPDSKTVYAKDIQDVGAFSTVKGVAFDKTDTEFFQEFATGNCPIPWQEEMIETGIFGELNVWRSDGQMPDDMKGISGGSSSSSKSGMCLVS

[3] = target: T4, Beta-adrenergic receptor kinase 1 (Homo sapiens, UniProt P25098); experiment: Inhibition of human GRK2 using casein as substrate in presence of [gamma33P]ATP by radiometric hotspot kinase assay
T4 sequence (P25098 whole entry): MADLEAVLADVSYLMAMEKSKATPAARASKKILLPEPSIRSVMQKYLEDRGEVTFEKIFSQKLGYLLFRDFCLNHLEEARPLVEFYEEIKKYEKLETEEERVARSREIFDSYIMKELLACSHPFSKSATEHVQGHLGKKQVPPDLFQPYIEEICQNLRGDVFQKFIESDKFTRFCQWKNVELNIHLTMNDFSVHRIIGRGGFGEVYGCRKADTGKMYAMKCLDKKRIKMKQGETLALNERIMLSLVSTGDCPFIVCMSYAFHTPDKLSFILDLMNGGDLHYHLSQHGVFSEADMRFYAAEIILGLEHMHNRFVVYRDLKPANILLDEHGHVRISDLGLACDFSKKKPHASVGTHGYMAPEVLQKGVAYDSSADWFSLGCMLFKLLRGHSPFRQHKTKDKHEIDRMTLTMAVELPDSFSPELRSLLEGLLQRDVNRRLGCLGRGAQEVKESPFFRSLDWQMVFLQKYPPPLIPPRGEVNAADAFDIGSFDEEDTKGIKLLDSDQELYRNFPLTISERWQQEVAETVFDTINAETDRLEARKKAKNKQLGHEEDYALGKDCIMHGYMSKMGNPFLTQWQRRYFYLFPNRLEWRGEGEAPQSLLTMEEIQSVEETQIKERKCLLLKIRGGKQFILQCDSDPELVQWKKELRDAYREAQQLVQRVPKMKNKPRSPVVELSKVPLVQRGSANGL

[4] = target: T5, G protein-coupled receptor kinase 3 (Homo sapiens, UniProt P35626); experiment: Inhibition of human GRK3 using casein as substrate in presence of [gamma33P]ATP by radiometric hotspot kinase assay
T5 sequence (P35626 whole entry): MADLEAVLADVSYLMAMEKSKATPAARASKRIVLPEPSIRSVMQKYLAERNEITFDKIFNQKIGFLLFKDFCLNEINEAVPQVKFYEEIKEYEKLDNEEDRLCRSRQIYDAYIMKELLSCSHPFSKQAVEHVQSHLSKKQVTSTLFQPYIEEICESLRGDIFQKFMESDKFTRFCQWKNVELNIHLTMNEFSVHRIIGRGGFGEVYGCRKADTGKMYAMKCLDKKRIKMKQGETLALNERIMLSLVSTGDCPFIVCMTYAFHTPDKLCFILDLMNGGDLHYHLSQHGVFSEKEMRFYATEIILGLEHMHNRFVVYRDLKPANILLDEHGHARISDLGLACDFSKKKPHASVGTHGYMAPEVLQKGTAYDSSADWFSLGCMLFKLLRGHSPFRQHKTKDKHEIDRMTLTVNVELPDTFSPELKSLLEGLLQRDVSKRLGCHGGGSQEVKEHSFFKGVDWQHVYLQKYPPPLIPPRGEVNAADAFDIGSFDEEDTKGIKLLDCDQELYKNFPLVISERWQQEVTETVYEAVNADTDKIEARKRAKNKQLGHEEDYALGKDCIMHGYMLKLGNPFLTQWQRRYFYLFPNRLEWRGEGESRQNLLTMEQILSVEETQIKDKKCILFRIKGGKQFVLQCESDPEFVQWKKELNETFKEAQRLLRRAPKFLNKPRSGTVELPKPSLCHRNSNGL

[5] = target: G protein-coupled receptor kinase 4 (Homo sapiens, UniProt P32298); experiment: Inhibition of human GRK4 using casein as substrate in presence of [gamma33P]ATP by radiometric hotspot kinase assay
Chain of G protein-coupled receptor kinase 4 (P32298 whole entry): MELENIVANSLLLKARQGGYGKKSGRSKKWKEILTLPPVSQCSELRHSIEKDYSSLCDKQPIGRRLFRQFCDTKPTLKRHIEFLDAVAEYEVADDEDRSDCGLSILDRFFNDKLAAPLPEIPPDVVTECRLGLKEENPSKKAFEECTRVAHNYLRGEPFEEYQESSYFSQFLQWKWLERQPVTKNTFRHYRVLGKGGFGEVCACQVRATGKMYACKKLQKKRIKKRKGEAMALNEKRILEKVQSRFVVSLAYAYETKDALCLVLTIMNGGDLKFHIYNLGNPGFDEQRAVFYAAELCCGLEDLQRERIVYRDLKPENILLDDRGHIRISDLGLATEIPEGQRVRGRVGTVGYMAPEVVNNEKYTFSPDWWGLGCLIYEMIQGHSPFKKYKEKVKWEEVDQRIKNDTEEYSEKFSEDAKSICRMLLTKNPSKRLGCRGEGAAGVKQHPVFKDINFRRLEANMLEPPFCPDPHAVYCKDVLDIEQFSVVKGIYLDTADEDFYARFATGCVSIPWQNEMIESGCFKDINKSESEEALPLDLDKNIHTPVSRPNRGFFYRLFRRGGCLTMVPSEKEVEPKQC

[6] = target: T1, G protein-coupled receptor kinase 6; experiment: Inhibition of human GRK6 using casein as substrate in presence of [gamma33P]ATP by radiometric hotspot kinase assay
Target sequence in this assay (P43250 whole entry): as the sequence (P43250 whole entry) above

Rhodopsin kinase GRK7 = target: T6, Rhodopsin kinase GRK7 (Homo sapiens, UniProt Q8WTQ7); experiment: Inhibition of recombinant full length human GRK7 using casein as substrate incubated for 40 mins in presence of [gamma-33ATP] by scintillation counting based radiometry assay
T6 sequence (Q8WTQ7 whole entry): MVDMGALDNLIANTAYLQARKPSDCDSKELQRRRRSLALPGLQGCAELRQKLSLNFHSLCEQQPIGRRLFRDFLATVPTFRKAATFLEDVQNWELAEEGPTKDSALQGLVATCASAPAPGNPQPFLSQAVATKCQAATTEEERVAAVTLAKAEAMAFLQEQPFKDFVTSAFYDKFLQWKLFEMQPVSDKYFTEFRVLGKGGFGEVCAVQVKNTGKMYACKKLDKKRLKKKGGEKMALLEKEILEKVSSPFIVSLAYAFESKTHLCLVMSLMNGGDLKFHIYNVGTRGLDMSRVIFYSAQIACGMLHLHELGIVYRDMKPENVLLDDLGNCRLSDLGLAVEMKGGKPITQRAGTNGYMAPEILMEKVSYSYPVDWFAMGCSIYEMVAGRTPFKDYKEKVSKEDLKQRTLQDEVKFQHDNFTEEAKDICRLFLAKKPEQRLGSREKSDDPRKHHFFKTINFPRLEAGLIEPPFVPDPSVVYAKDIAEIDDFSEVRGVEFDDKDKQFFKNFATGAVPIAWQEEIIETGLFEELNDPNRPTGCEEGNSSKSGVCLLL

[7] = target: T1, G protein-coupled receptor kinase 6; experiment: Binding affinity to FLAG-tagged GRK6 in human KMS11 cells incubated for […] by ITDR assay; type: cell-based, KMS-11
Target sequence in this assay (P43250 whole entry): as the sequence (P43250 whole entry) above

[8] = target: T1, G protein-coupled receptor kinase 6; experiment: Inhibition of recombinant full-length human GRK6 using casein as substrate at 1 uM measured after 80 mins in presence of [gamma33P]ATP by radiometric scintillation counting method relative to control
Target sequence in this assay (P43250 whole entry, looked up): as the sequence (P43250 whole entry) above

| pIC50 [1] | pIC50 (Aurora kinase A) | pIC50 [2] | pIC50 (Rhodopsin kinase GRK1) | pIC50 [3] | pIC50 [4] | pIC50 [5] | pIC50 [6] | pIC50 (Rhodopsin kinase GRK7) | pIC50 [7] | inhibition [8] [%] | SMILES |
| --- | --- | --- | --- | --- | --- | --- | --- | --- | --- | --- | --- |
| 7.74 | 5.34 | < 5.00 | 6.35 | < 5.00 | < 5.00 | 6.72 | 7.48 | 7.44 | 5.00 |  | CCc1cc(Nc2nc(NCc3ccc(F)cn3)nc3cccc(OC)c23)n[nH]1 |
| 8.14 | 6.07 |  | 6.72 | < 5.00 | < 5.00 | 7.01 | 7.74 | 7.82 | 5.70 |  | CCc1cc(Nc2nc(N[C@@H](C)c3ccc(F)cn3)nc3cccc(OC)c23)n[nH]1 |
|  |  |  |  |  |  |  |  |  |  | 95 | N#CCc1ccc(Nc2nc(Nc3cc(C4CCC4)[nH]n3)c3ccccc3n2)cc1 |
|  |  |  |  |  |  |  |  |  |  | 79 | Cc1cc(Nc2nc(N[C@@H](C)c3ccc(F)cc3)c(C#N)cc2F)n[nH]1 |
